Source: patent publication US20230295119A1, “SUBSTITUTED PYRIDINES FOR THE TREATMENT OF INFLAMMATORY DISEASES” (GOSSAMER BIO SERVICES, INC., priority 2020, published 2023)

Biological target: human JAK1 (Homo sapiens (Human), UniProt P23458)
Assay: JAK1 TR-FRET kinase assay
Format: biochemical
Conditions: TR-FRET, JAK1 2.5 nM

Chain of human JAK1 (P23458 whole entry): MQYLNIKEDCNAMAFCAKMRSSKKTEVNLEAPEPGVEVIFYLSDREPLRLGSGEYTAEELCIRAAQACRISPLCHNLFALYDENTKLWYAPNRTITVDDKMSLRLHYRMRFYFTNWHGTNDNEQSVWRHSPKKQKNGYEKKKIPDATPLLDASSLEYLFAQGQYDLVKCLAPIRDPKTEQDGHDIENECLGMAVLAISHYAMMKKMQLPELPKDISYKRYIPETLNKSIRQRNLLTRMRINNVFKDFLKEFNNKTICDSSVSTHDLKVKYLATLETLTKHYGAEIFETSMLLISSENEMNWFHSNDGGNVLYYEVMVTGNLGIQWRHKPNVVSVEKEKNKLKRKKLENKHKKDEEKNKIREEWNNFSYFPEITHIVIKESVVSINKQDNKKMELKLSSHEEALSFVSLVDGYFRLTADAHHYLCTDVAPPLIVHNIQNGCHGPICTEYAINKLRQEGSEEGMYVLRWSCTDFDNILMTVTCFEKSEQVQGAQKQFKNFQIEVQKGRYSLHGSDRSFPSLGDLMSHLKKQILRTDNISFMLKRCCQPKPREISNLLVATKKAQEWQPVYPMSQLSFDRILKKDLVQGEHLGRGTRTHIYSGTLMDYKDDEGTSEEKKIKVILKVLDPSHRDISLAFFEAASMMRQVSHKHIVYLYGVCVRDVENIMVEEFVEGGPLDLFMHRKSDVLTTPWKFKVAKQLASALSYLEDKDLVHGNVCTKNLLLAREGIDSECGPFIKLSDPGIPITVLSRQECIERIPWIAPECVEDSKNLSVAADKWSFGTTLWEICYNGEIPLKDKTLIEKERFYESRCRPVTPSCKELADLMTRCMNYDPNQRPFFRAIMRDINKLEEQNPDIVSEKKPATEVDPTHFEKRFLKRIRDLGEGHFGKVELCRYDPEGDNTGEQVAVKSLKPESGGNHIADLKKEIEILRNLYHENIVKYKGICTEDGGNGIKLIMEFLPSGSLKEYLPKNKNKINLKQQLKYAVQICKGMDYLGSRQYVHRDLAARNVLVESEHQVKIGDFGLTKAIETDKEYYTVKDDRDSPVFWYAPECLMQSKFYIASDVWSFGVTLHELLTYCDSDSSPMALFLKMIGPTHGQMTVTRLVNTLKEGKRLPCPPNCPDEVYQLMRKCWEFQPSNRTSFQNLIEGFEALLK

Row | Compound | IC50 [nM]
1 | CCC(=O)c1cnc(Nc2ccc(CN3CC(F)C3)cn2)cc1Nc1cccc(-c2ncn(C)n2)c1OC [Compound 9EE] | ≥ 500
2 | CCC(=O)c1cnc(Nc2ccc(CN(C)C)cn2)cc1Nc1cc(F)cc(-c2ncn(C)n2)c1OC [Compound 9E] | ≥ 500
3 | CCC(=O)c1cnc(Nc2cccc(CN3CCCC3)n2)cc1Nc1cccc(-c2ncn(C)n2)c1OC [Compound 9FFFF] | ≥ 500
4 | CCC(=O)c1cnc(Nc2ccc(CN)nn2)cc1Nc1cccc(-c2ncn(C)n2)c1OC [Compound 9FFF] | ≥ 500
5 | CCC(=O)c1cnc(Nc2ccc(CN3CC(C#N)C3)cn2)cc1Nc1cccc(-c2ncn(C)n2)c1OC [Compound 9FF] | ≥ 500
6 | COc1c(Nc2cc(Nc3ccc(CN(C)C)cn3)ncc2C(=O)C2CC2)cccc1-c1ncn(C)n1 [Compound 9F] | ≥ 500
7 | CCC(=O)c1cnc(Nc2cccc(CN3CCCCC3)n2)cc1Nc1cccc(-c2ncn(C)n2)c1OC [Compound 9GGGG] | ≥ 500
8 | CCC(=O)c1cnc(Nc2ccc(CNC)nn2)cc1Nc1cccc(-c2ncn(C)n2)c1OC [Compound 9GGG] | ≥ 500
9 | CCC(=O)c1cnc(Nc2ccc([C@H](C)N3CC(O)C3)cn2)cc1Nc1cccc(-c2ncn(C)n2)c1OC [Compound 9GG] | ≥ 500

Continued, values first:

Row | IC50 [nM] | Compound
10 | ≥ 500 | CCC(=O)c1cnc(Nc2ccc(C(N)C(F)(F)F)cn2)cc1Nc1cccc(-c2ncn(C)n2)c1OC (centres unmarked) [Compound 9CC]
11 | ≥ 500 | CCC(=O)c1cnc(Nc2ccc(CNC)cn2)cc1Nc1cccc(-c2ncn(C)n2)c1OC [Compound 9C]
12 | ≥ 500 | CCC(=O)c1cnc(Nc2ncc(CN(C)C)cc2F)cc1Nc1cccc(-c2ncn(C)n2)c1OC [Compound 9DDDD]
13 | ≥ 500 | CCC(=O)c1cnc(Nc2ccc(CN(C)C3COC3)cn2)cc1Nc1cccc(-c2ncn(C)n2)c1OC [Compound 9DDD]
14 | ≥ 500 | CCC(=O)c1cnc(Nc2ccc(CN3CC(OC)C3)cn2)cc1Nc1cccc(-c2ncn(C)n2)c1OC [Compound 9DD]
15 | ≥ 500 | CCC(=O)c1cnc(Nc2ccc(CN(C)C)cn2)cc1Nc1cccc(-c2ncc(F)cn2)c1OC [Compound 9D]
16 | ≥ 500 | CCC(=O)c1cnc(Nc2ncc(CNC)cc2F)cc1Nc1cccc(-c2ncn(C)n2)c1OC [Compound 9EEEE]
17 | ≥ 500 | CCC(=O)c1cnc(Nc2ccc(CN(C)C3CC(F)(F)C3)cn2)cc1Nc1cccc(-c2ncn(C)n2)c1OC [Compound 9EEE]

Biological target: TYK2 JH2 domain (Homo sapiens (Human), UniProt P29597)
Assay: TYK2 JH2 NanoBRET assay
Format: binding
Conditions: Table 20, read-out: TYK2 IC50
Procedure: HEK293T cells were transfected with NanoLuc-TYK2 JH2 Fusion Vector (Promega, customized) using Trans-IT reagent (Mirus, #MIR2700) and incubated for overnight in 37° C. incubator. […] Add 85 µL of cell suspension into white, polypropylene, 96-well plates (Corning, #3600). 90 µL of cells were used for no tracer control samples. 5 µL of diluted NanoBRET K10 tracer (Promega, #CS1810C122) were added to cells to a final concentration of 0.5 µM. Test compounds were diluted into DMSO, and then phenol-free opti-MEM to 10X of final concentration. 10 µL of diluted compounds were added into each well. The cells were incubated with test compound and tracer for 2 hours. 3XNanoBRET® Nano-Glo® Substrate and Extracellular NanoLuc® Inhibitor mixture were prepared and 50 µL of the mixture were added into the wells and mixed. […] NanoBRET signal was determined by using the ratio of acceptor signal and donor signal.

Chain of TYK2 JH2 domain (P29597 589-875): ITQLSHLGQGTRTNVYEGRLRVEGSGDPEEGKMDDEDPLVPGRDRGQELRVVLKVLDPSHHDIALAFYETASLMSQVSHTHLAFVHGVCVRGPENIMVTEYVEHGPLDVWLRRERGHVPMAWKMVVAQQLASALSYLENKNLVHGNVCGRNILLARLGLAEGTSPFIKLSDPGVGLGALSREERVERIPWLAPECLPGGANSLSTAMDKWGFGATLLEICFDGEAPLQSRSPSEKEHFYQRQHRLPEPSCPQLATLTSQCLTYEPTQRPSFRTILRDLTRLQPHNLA

Row | Compound | IC50 [nM]
18 | CCC(=O)c1cnc(Nc2ccc(CN3CC(F)C3)cn2)cc1Nc1cccc(-c2ncn(C)n2)c1OC [Compound 9EE] | < 5
19 | CCC(=O)c1cnc(Nc2ccc(CN(C)C)cn2)cc1Nc1cc(F)cc(-c2ncn(C)n2)c1OC [Compound 9E] | < 5
20 | CCC(=O)c1cnc(Nc2cccc(CN3CCCC3)n2)cc1Nc1cccc(-c2ncn(C)n2)c1OC [Compound 9FFFF] | 5 to 50
21 | CCC(=O)c1cnc(Nc2ccc(CN)nn2)cc1Nc1cccc(-c2ncn(C)n2)c1OC [Compound 9FFF] | 50 to 500
22 | CCC(=O)c1cnc(Nc2ccc(CN3CC(C#N)C3)cn2)cc1Nc1cccc(-c2ncn(C)n2)c1OC [Compound 9FF] | 5 to 50
23 | COc1c(Nc2cc(Nc3ccc(CN(C)C)cn3)ncc2C(=O)C2CC2)cccc1-c1ncn(C)n1 [Compound 9F] | 5 to 50
24 | CCC(=O)c1cnc(Nc2cccc(CN3CCCCC3)n2)cc1Nc1cccc(-c2ncn(C)n2)c1OC [Compound 9GGGG] | 5 to 50
25 | CCC(=O)c1cnc(Nc2ccc(CNC)nn2)cc1Nc1cccc(-c2ncn(C)n2)c1OC [Compound 9GGG] | 5 to 50
26 | CCC(=O)c1cnc(Nc2ccc([C@H](C)N3CC(O)C3)cn2)cc1Nc1cccc(-c2ncn(C)n2)c1OC [Compound 9GG] | 5 to 50

Next, values leading:

Row | IC50 [nM] | Compound
27 | < 5 | CCC(=O)c1cnc(Nc2ccc(C(N)C(F)(F)F)cn2)cc1Nc1cccc(-c2ncn(C)n2)c1OC (centres unmarked) [Compound 9CC]
28 | < 5 | CCC(=O)c1cnc(Nc2ccc(CNC)cn2)cc1Nc1cccc(-c2ncn(C)n2)c1OC [Compound 9C]
29 | 5 to 50 | CCC(=O)c1cnc(Nc2ncc(CN(C)C)cc2F)cc1Nc1cccc(-c2ncn(C)n2)c1OC [Compound 9DDDD]
30 | < 5 | CCC(=O)c1cnc(Nc2ccc(CN(C)C3COC3)cn2)cc1Nc1cccc(-c2ncn(C)n2)c1OC [Compound 9DDD]
31 | < 5 | CCC(=O)c1cnc(Nc2ccc(CN3CC(OC)C3)cn2)cc1Nc1cccc(-c2ncn(C)n2)c1OC [Compound 9DD]
32 | 5 to 50 | CCC(=O)c1cnc(Nc2ccc(CN(C)C)cn2)cc1Nc1cccc(-c2ncc(F)cn2)c1OC [Compound 9D]
33 | 5 to 50 | CCC(=O)c1cnc(Nc2ncc(CNC)cc2F)cc1Nc1cccc(-c2ncn(C)n2)c1OC [Compound 9EEEE]
34 | < 5 | CCC(=O)c1cnc(Nc2ccc(CN(C)C3CC(F)(F)C3)cn2)cc1Nc1cccc(-c2ncn(C)n2)c1OC [Compound 9EEE]

Biological target: human JAK2 (Homo sapiens (Human), UniProt O60674)
Assay: JAK2 TR-FRET kinase assay
Format: biochemical
Conditions: JAK2 0.025 nM

Chain of human JAK2 (O60674 whole entry): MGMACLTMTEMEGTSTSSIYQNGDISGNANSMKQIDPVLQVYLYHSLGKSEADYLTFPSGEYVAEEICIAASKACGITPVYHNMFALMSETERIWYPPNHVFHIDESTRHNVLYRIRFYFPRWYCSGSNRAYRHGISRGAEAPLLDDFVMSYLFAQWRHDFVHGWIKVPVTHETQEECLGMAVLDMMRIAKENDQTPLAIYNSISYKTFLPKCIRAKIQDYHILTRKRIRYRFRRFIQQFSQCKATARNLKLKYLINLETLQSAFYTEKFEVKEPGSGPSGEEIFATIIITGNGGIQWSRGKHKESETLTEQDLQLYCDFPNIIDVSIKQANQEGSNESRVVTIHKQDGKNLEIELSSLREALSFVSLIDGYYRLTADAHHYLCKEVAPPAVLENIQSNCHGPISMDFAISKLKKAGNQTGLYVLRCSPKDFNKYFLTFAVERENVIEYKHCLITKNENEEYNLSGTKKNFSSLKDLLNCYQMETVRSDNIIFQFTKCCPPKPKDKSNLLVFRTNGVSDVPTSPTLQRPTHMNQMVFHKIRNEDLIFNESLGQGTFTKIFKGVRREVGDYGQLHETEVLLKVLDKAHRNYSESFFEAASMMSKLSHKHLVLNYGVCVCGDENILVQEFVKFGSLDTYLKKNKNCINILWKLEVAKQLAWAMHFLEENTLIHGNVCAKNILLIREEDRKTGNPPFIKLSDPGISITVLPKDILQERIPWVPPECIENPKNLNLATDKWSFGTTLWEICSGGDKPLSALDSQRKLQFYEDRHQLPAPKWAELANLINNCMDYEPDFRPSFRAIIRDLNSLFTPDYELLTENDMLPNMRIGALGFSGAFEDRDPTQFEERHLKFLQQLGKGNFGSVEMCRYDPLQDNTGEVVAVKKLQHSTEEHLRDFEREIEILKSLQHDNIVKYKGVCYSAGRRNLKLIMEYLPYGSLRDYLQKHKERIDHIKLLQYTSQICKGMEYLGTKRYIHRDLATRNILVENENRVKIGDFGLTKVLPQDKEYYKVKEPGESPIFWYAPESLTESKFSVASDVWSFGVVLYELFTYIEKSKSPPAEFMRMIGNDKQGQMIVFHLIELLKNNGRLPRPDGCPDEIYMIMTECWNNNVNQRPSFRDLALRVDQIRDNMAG

Row | Compound | IC50 [nM]
35 | CCC(=O)c1cnc(Nc2ccc(CN3CC(F)C3)cn2)cc1Nc1cccc(-c2ncn(C)n2)c1OC [Compound 9EE] | ≥ 500
36 | CCC(=O)c1cnc(Nc2ccc(CN(C)C)cn2)cc1Nc1cc(F)cc(-c2ncn(C)n2)c1OC [Compound 9E] | ≥ 500
37 | CCC(=O)c1cnc(Nc2cccc(CN3CCCC3)n2)cc1Nc1cccc(-c2ncn(C)n2)c1OC [Compound 9FFFF] | ≥ 500
38 | CCC(=O)c1cnc(Nc2ccc(CN)nn2)cc1Nc1cccc(-c2ncn(C)n2)c1OC [Compound 9FFF] | ≥ 500
39 | CCC(=O)c1cnc(Nc2ccc(CN3CC(C#N)C3)cn2)cc1Nc1cccc(-c2ncn(C)n2)c1OC [Compound 9FF] | ≥ 500
40 | COc1c(Nc2cc(Nc3ccc(CN(C)C)cn3)ncc2C(=O)C2CC2)cccc1-c1ncn(C)n1 [Compound 9F] | ≥ 500
41 | CCC(=O)c1cnc(Nc2cccc(CN3CCCCC3)n2)cc1Nc1cccc(-c2ncn(C)n2)c1OC [Compound 9GGGG] | ≥ 500
42 | CCC(=O)c1cnc(Nc2ccc(CNC)nn2)cc1Nc1cccc(-c2ncn(C)n2)c1OC [Compound 9GGG] | ≥ 500
43 | CCC(=O)c1cnc(Nc2ccc([C@H](C)N3CC(O)C3)cn2)cc1Nc1cccc(-c2ncn(C)n2)c1OC [Compound 9GG] | ≥ 500

The next lines start with the values.

Row | IC50 [nM] | Compound
44 | ≥ 500 | CCC(=O)c1cnc(Nc2ccc(C(N)C(F)(F)F)cn2)cc1Nc1cccc(-c2ncn(C)n2)c1OC (centres unmarked) [Compound 9CC]
45 | ≥ 500 | CCC(=O)c1cnc(Nc2ccc(CNC)cn2)cc1Nc1cccc(-c2ncn(C)n2)c1OC [Compound 9C]
46 | ≥ 500 | CCC(=O)c1cnc(Nc2ncc(CN(C)C)cc2F)cc1Nc1cccc(-c2ncn(C)n2)c1OC [Compound 9DDDD]
47 | ≥ 500 | CCC(=O)c1cnc(Nc2ccc(CN(C)C3COC3)cn2)cc1Nc1cccc(-c2ncn(C)n2)c1OC [Compound 9DDD]
48 | ≥ 500 | CCC(=O)c1cnc(Nc2ccc(CN3CC(OC)C3)cn2)cc1Nc1cccc(-c2ncn(C)n2)c1OC [Compound 9DD]
49 | ≥ 500 | CCC(=O)c1cnc(Nc2ccc(CN(C)C)cn2)cc1Nc1cccc(-c2ncc(F)cn2)c1OC [Compound 9D]
50 | ≥ 500 | CCC(=O)c1cnc(Nc2ncc(CNC)cc2F)cc1Nc1cccc(-c2ncn(C)n2)c1OC [Compound 9EEEE]
51 | ≥ 500 | CCC(=O)c1cnc(Nc2ccc(CN(C)C3CC(F)(F)C3)cn2)cc1Nc1cccc(-c2ncn(C)n2)c1OC [Compound 9EEE]

Biological target: human JAK3 (Homo sapiens (Human), UniProt P52333)
Assay: JAK3 TR-FRET kinase assay
Format: biochemical
Conditions: JAK3 0.0125 nM

Chain of human JAK3 (P52333 whole entry): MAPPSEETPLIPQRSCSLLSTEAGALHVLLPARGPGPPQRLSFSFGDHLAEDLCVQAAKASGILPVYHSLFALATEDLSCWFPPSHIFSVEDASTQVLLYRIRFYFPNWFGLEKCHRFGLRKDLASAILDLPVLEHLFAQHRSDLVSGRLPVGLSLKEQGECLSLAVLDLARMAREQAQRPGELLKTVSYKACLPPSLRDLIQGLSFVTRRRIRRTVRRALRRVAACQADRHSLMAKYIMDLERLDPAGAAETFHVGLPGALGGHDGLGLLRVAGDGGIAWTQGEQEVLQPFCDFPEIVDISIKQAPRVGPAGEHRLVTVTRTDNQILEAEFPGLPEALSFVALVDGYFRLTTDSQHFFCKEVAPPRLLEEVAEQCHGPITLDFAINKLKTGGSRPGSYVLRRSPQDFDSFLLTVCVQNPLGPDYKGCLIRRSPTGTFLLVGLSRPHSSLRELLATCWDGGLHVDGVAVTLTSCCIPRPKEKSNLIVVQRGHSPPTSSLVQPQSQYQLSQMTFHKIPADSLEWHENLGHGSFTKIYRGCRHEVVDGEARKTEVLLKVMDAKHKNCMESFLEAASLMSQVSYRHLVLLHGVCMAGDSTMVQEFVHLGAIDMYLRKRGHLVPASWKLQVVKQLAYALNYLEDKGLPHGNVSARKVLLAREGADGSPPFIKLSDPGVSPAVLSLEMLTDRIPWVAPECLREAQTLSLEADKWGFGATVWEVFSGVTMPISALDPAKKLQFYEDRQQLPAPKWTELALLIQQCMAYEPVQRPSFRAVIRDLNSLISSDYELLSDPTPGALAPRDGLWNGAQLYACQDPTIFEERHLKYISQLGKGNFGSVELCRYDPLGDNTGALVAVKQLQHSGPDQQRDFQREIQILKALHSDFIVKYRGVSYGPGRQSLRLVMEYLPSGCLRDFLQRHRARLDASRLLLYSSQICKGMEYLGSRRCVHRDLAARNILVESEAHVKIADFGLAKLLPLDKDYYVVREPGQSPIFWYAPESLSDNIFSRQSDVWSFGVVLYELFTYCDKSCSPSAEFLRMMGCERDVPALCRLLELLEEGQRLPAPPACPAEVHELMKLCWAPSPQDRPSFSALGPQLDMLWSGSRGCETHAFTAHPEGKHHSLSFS

Row | Compound | IC50 [nM]
52 | CCC(=O)c1cnc(Nc2ccc(CN3CC(F)C3)cn2)cc1Nc1cccc(-c2ncn(C)n2)c1OC [Compound 9EE] | 50 to 500
53 | CCC(=O)c1cnc(Nc2ccc(CN(C)C)cn2)cc1Nc1cc(F)cc(-c2ncn(C)n2)c1OC [Compound 9E] | ≥ 500
54 | CCC(=O)c1cnc(Nc2cccc(CN3CCCC3)n2)cc1Nc1cccc(-c2ncn(C)n2)c1OC [Compound 9FFFF] | ≥ 500
55 | CCC(=O)c1cnc(Nc2ccc(CN)nn2)cc1Nc1cccc(-c2ncn(C)n2)c1OC [Compound 9FFF] | ≥ 500
56 | CCC(=O)c1cnc(Nc2ccc(CN3CC(C#N)C3)cn2)cc1Nc1cccc(-c2ncn(C)n2)c1OC [Compound 9FF] | 50 to 500
57 | COc1c(Nc2cc(Nc3ccc(CN(C)C)cn3)ncc2C(=O)C2CC2)cccc1-c1ncn(C)n1 [Compound 9F] | ≥ 500
58 | CCC(=O)c1cnc(Nc2cccc(CN3CCCCC3)n2)cc1Nc1cccc(-c2ncn(C)n2)c1OC [Compound 9GGGG] | ≥ 500
59 | CCC(=O)c1cnc(Nc2ccc(CNC)nn2)cc1Nc1cccc(-c2ncn(C)n2)c1OC [Compound 9GGG] | ≥ 500
60 | CCC(=O)c1cnc(Nc2ccc([C@H](C)N3CC(O)C3)cn2)cc1Nc1cccc(-c2ncn(C)n2)c1OC [Compound 9GG] | ≥ 500

Second part, the compound after the results:

Row | IC50 [nM] | Compound
61 | ≥ 500 | CCC(=O)c1cnc(Nc2ccc(C(N)C(F)(F)F)cn2)cc1Nc1cccc(-c2ncn(C)n2)c1OC (centres unmarked) [Compound 9CC]
62 | ≥ 500 | CCC(=O)c1cnc(Nc2ccc(CNC)cn2)cc1Nc1cccc(-c2ncn(C)n2)c1OC [Compound 9C]
63 | ≥ 500 | CCC(=O)c1cnc(Nc2ncc(CN(C)C)cc2F)cc1Nc1cccc(-c2ncn(C)n2)c1OC [Compound 9DDDD]
64 | ≥ 500 | CCC(=O)c1cnc(Nc2ccc(CN(C)C3COC3)cn2)cc1Nc1cccc(-c2ncn(C)n2)c1OC [Compound 9DDD]
65 | ≥ 500 | CCC(=O)c1cnc(Nc2ccc(CN3CC(OC)C3)cn2)cc1Nc1cccc(-c2ncn(C)n2)c1OC [Compound 9DD]
66 | ≥ 500 | CCC(=O)c1cnc(Nc2ccc(CN(C)C)cn2)cc1Nc1cccc(-c2ncc(F)cn2)c1OC [Compound 9D]
67 | ≥ 500 | CCC(=O)c1cnc(Nc2ncc(CNC)cc2F)cc1Nc1cccc(-c2ncn(C)n2)c1OC [Compound 9EEEE]
68 | ≥ 500 | CCC(=O)c1cnc(Nc2ccc(CN(C)C3CC(F)(F)C3)cn2)cc1Nc1cccc(-c2ncn(C)n2)c1OC [Compound 9EEE]
